target: T1, soluble guanylate cyclase (sGC) (Homo sapiens, UniProt Q02108+Q02153); experiment: sGC-HEK-cGMP assay, LC/MS detection, with SNP incubation (Example 2A); format: cell-based; details: HEK293 cells, in the presence of 10 μM SNP; constrained fit; read-out: sGC_HEK_LCMS cEC50 (nM) Binned (constrained)
T1 construct: endogenously expressing soluble guanylate cyclase (sGC); endogenous in cells; host or cells: HEK293
T1 sequence (Q02153 1-619): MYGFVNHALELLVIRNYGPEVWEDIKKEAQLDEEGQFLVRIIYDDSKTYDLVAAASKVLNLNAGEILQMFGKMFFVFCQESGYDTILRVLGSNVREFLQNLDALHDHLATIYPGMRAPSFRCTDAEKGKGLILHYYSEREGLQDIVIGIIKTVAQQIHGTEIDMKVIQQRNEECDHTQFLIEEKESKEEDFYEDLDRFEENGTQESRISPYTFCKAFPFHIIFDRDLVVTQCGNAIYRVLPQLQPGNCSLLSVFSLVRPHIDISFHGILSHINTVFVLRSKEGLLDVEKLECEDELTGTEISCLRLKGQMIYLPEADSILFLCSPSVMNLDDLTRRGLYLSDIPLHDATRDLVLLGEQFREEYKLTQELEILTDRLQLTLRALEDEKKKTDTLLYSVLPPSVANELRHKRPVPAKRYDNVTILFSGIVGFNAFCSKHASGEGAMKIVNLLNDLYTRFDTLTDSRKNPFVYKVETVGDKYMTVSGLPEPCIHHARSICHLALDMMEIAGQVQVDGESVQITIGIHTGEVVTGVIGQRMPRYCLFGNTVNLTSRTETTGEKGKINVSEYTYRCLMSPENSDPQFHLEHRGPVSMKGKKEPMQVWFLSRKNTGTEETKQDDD
T1 sequence (Q02108 1-690): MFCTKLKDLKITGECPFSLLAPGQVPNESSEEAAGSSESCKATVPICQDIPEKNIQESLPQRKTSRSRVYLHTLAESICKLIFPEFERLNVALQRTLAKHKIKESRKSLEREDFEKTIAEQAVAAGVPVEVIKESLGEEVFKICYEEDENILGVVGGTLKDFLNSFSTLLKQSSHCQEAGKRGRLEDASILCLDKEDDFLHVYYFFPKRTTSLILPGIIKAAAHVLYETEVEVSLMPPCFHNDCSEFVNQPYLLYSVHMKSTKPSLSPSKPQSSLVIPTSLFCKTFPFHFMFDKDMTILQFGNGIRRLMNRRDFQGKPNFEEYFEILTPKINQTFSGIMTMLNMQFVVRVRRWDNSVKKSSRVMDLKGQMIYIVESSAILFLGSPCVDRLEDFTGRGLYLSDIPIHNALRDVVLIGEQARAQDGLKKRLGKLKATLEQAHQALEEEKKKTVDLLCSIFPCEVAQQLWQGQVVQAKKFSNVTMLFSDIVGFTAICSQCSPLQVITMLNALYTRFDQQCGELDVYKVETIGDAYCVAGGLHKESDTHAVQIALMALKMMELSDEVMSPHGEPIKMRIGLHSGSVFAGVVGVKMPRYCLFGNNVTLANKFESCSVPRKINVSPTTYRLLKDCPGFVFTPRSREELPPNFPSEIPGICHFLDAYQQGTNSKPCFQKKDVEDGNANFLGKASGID
Protocol: Human embryonic kidney cells (HEK293), endogenously expressing soluble guanylate cyclase (sGC), were used to evaluate the activity of test compounds. Compounds stimulating the sGC receptor should cause an increase in the intracellular concentration of cGMP. HEK 293 cells were seeded in Dulbecco's Modification of Eagle's Medium supplemented with fetal bovine serum (10% final) and L-glutamine (2 mM final) in a 200 μL volume at a density of 1×10^5 cells/well in a poly-D-lysine coated 96 well flat bottom plate and grown overnight at 37° C. Medium was aspirated and cells were washed with 1× Hank's Buffered Saline Salt Solution (200 μL). Cells were then incubated for 15 minutes at 37° C. with 0.5 mM 3-isobutyl-1-methylxanthine (200 μL). Test article and sodium nitroprusside were then added to the assay mixture (2 μL each) and incubated at 37° C. for 10 minutes. After the 10 minute incubation, the assay mixture was aspirated and 0.1M HCl (200 μL) was added to the cells. The plate was incubated at 4° C. for 30 minutes in the 0.1M HCl to stop the reaction and lysed the cells. The plates were then centrifuged at 1,200 g for 5 minutes at room temperature. Supernatants were collected and transferred to a new flat bottom 96 well plate for analysis. Vehicle controls were carried out using DMSO (1%). A known sGC stimulator, BAY 41-2272, was used as the positive control. Samples were diluted with an equal volume of 1 M Ammonium Acetate (pH 7) to neutralize samples for better chromatography. A 2× cGMP standard curve was prepared in 0.1 M HCl and then diluted with an equal volume of 1 M Ammonium Acetate, with the following final concentrations in nM: 1024, 512, 256, 128, 64, 32, 16, 8, 4, 2, 1. cGMP concentrations were determined from each sample using the LC/MS conditions (Table 2 below) and calculated standard curve. EC50 values were calculated from concentration-response curves generated with GraphPad Prism Software.

| EC50 | Compound |
| --- | --- |
| 1000 to 5000 nM | Fc1ccccc1Cn1nc(-c2ncc(F)c(OC3CCNC3)n2)cc1-c1ccon1 (centres unmarked) [Compound I-5] |
| 1000 to 5000 nM | CS(=O)(=O)CCCOc1nc(-c2cc(-c3ccon3)n(Cc3ccccc3F)n2)ncc1F [Compound I-18] |
| 1000 to 5000 nM | O=C(COc1nc(-c2cc(-c3ccon3)n(Cc3ccccc3F)n2)ncc1F)N1CCOCC1 [Compound I-11] |

same assay, conditions: HEK293 cells, in the presence of 10 μM SNP; top of concentration-response curve not fitted to 100%; read-out: sGC_HEK_LCMS uEC50 (nM) Binned (unconstrained)

| EC50 | Compound |
| --- | --- |
| 1000 to 5000 nM | CC(C)(C)OC(=O)N1CCCC1COc1nc(-c2cc(-c3ccon3)n(Cc3ccccc3F)n2)ncc1F (centres unmarked) [Compound I-4] |
| ≥ 5000 nM | Fc1ccccc1Cn1nc(-c2ncc(F)c(OC3CCNCC3)n2)cc1-c1ccon1 [Compound I-13] |
| 100 to 1000 nM | Fc1ccccc1Cn1nc(-c2ncc(F)c(OC3CCOC3)n2)cc1-c1ccon1 (centres unmarked) [Compound I-15] |
| 1000 to 5000 nM | COC(=O)C1(Oc2nc(-c3cc(-c4ccon4)n(Cc4ccccc4F)n3)ncc2F)CC1 [Compound I-8] |
| 100 to 1000 nM | Fc1ccccc1Cn1nc(-c2ncc(F)c(OCC(F)(F)c3ccccn3)n2)cc1-c1ccon1 [Compound I-17] |
| 1000 to 5000 nM | COC(=O)COc1nc(-c2cc(-c3ccon3)n(Cc3ccccc3F)n2)ncc1F [Compound I-7] |
| 1000 to 5000 nM | Fc1ccccc1Cn1nc(-c2ncc(F)c(OC3CNC3)n2)cc1-c1ccon1 [Compound I-14] |

Continued, molecule first:

| Compound | EC50 |
| --- | --- |
| O=C(O)c1ccccc1C(=O)Cc1nc(-c2cc(-c3ccon3)n(Cc3ccccc3F)n2)ncc1F [Compound I-27] | 1000 to 5000 nM |
| O=C1O/C(=C\c2nc(-c3cc(-c4ccon4)n(Cc4ccccc4F)n3)ncc2F)c2ccccc21 [Compound I-26] | 1000 to 5000 nM |
| COC(=O)c1ccccc1C#Cc1nc(-c2cc(-c3ccon3)n(Cc3ccccc3F)n2)ncc1F [Compound I-23] | 1000 to 5000 nM |
| CS(=O)(=O)N1CCCC(Oc2nc(-c3cc(-c4ccon4)n(Cc4ccccc4F)n3)ncc2F)C1 (centres unmarked) [Compound I-21] | 1000 to 5000 nM |

target: T2, human recombinant soluble guanylate cyclase enzyme α1β1 (Homo sapiens, UniProt Q02108+Q02153); experiment: Purified human recombinant sGC α1β1 enzyme assay with DETA-NONOate, cGMP HTRF (Example 5); format: biochemical; details: 30 uM DETA NONOate, 50% of maximal response of 30 uM Compound Y, read-out: sGC_Enz_HTRF_a1b1 EC50/IC50 Abs (Norm) (nM) Binned
T2 construct: purchased Enzo Life Sciences ALX-201-177
T2 sequence (Q02153 1-619): T1 sequence (Q02153 1-619)
T2 sequence (Q02108 1-690): T1 sequence (Q02108 1-690)
Protocol: Purified human recombinant soluble guanylate cyclase enzyme α1β1 (h sGC) obtained from Enzo Life Sciences (P/N: ALX-201-177) was used to evaluate the activity of test compounds. The assay reactions contained 0.1 M Tris (pH 8.0), 0.5 mg/mL BSA, 2 mM DTT, 4 mM MgCl2, 30 uM DETA NONOate (Enzo Life Science P/N: ALX-430-014), and 12.5 ng/ml human soluble guanylate cyclase enzyme. […] Guanosine 5′-triphosphate (Sigma-Aldrich P/N: G8877) was added to a final concentration of 300 μM and enzyme reactions were incubated (100 μL, 384-well plate format) at 37° C. for 20 minutes. The controls contained 3% DMSO (low control), or 30 uM of Compound Y (high control). After the 20 minute incubation, the reaction was stopped with the addition of 100 μL of ice cold 20% acetic acid.
cGMP concentrations in all samples were determined using the cGMP HTRF (Cisbio P/N: 62GM2PEC) assay per manufacturer's instructions. A cGMP standard curve was fit using a 4-parameter fit (log(inhibitor) vs. response variable slope) using GraphPad Prism Software v.6. Samples were diluted appropriately to ensure that values fell within the linear range of the standard curve.
Data were fit using a 4-parameter fit (log(agonist) vs. response variable slope) using GraphPad Prism Software v.6.

| EC50 | Compound |
| --- | --- |
| ≥ 5000 nM | O=C(O)COc1nc(-c2cc(-c3ccon3)n(Cc3ccccc3F)n2)ncc1F [Compound I-6] |

tested on: lambs with acute pulmonary hypertension; experiment: not given; details: after intravenous ODQ; cited from earlier work

| Compound | pulmonary vasodilation and transpulmonary cGMP release after ODQ treatment |
| --- | --- |
| O=C(O)CCCCN(CCc1ccccc1OCc1ccc(CCc2ccccc2)cc1)Cc1ccc(C(=O)O)cc1 [BAY 58-2667] | greatly enhanced |

same assay, conditions: combination with inhaled nitric oxide; cited from earlier work

| Compound | pulmonary vasodilation induced by iNO after inhaling microparticles |
| --- | --- |
| Nc1nc(-c2nn(Cc3ccccc3F)c3ncccc23)nc(N)c1N1CCOCC1 [BAY 41-8543] | augmented |

same assay, conditions: inhaled microparticles, awake lambs, U-46619 infusion; cited from earlier work

| Compound | effect on mean arterial pressure | pulmonary vasodilation | transpulmonary cGMP release |
| --- | --- | --- | --- |
| O=C(O)CCCCN(CCc1ccccc1OCc1ccc(CCc2ccccc2)cc1)Cc1ccc(C(=O)O)cc1 [BAY 58-2667] | without significant effect on mean arterial pressure | dose dependent pulmonary vasodilation | increased transpulmonary cGMP release |
| Nc1nc(-c2nn(Cc3ccccc3F)c3ncccc23)ncc1C1CC1 [BAY 41-2272] | without significant effect on mean arterial pressure | dose dependent pulmonary vasodilation | increased transpulmonary cGMP release |
| Nc1nc(-c2nn(Cc3ccccc3F)c3ncccc23)nc(N)c1N1CCOCC1 [BAY 41-8543] | without significant effect on mean arterial pressure | dose dependent pulmonary vasodilation | increased transpulmonary cGMP release |

same assay, conditions: inhaled microparticles, awake lambs; cited from earlier work

| Compound | systemic arterial oxygenation |
| --- | --- |
| O=C(O)CCCCN(CCc1ccccc1OCc1ccc(CCc2ccccc2)cc1)Cc1ccc(C(=O)O)cc1 [BAY 58-2667] | increased systemic arterial oxygenation |
| Nc1nc(-c2nn(Cc3ccccc3F)c3ncccc23)nc(N)c1N1CCOCC1 [BAY 41-8543] | increased systemic arterial oxygenation |

target: T3, sGC enzyme (Homo sapiens, UniProt Q02108+Q02153); experiment: cGMP GloSensor cell-based assay, 384-well format (Example 2C); details: read-out: sGC_HEK_GloSensor EC50/IC50 Abs (Norm) (nM) Binned
T3 construct: host or cells: HEK293 cells stably expressing GloSensor 40F cGMP biosensor
T3 sequence (Q02153 1-619): T1 sequence (Q02153 1-619)
T3 sequence (Q02108 1-690): T1 sequence (Q02108 1-690)
Source text: Human embryonic kidney cells (HEK293) cells expressing GloSensor™ 40F cGMP (Part No: CS182801, Promega) were used to evaluate the activity of test compounds. The luminescent biosensors (engineered luciferase) that were incorporated into these cells detect cGMP formed by the compounds stimulating the sGC enzyme and emit luminescence.
cGMP GloSensor cells were maintained in Dulbecco's Modification of Eagle's Medium (DMEM) supplemented with fetal bovine serum (FBS) (10% final) and hygromycine (200 ug/ml). The day before assay, cells were plated in DMEM with 10% FBS in a 50 μL volume at a density of 1.5×10^4 cells/well in a poly-D-lysine coated 384-well flat white-bottom plate (Corning Cat No 35661). Cells were incubated overnight at 37° C. in a humidified chamber with 5% CO2. The next day, medium was removed and cells were replaced with 40 ul/well of GloSensor™, 2 mM (Promega Cat No E1291). Cells were treated for 90 minutes at 25° C. to allow the substrate to equilibrate in the cells. Test compounds and Diethylenetriamine NONOate (DETA-NONOate) was diluted to 3 mM (20×) in serum-free CO2 independent medium and serally diluted at 4× dilutions to create 5× dose curve from which 10 ul was added to the wells (x μM concentration for test compound solution and 10 μM concentration for DETA-NONOate solution; wherein x is one of the following final concentrations).
For the kinetics studies, luminescense was measured right away for 0.2 sec per well with Envision (Perkin Elmer model No). For endpoint SAR screening, data were collected after 55 min incubation at room temperature.
Data analysis was carried out as indicated above in Example 2C.

| EC50 | Compound |
| --- | --- |
| > 1000 nM | OCCSc1cnc(-c2cc(-c3ccon3)n(Cc3ccccc3F)n2)nc1SCCO [Compound I-35] |
| 100 to 1000 nM | Fc1ccccc1Cn1nc(-c2ncc(F)c(Sc3ccccc3)n2)cc1-c1ccon1 [Compound I-37] |
| > 1000 nM | OCCSc1nc(-c2cc(-c3ccon3)n(Cc3ccccc3F)n2)ncc1F [Compound I-34] |
| ≤ 100 nM | O=S(=O)(c1ccccc1)c1nc(-c2cc(-c3ccon3)n(Cc3ccccc3F)n2)ncc1F [Compound I-38] |

Reference: patent US20170298055A1, “sGC STIMULATORS” (IRONWOOD PHARMACEUTICALS, INC., priority 2014, published 2017)
